Experimental findings from US20110152166A1, “METHOD OF MODULATION OF PROTEIN PHOSPHORYLATION-DEPENDENT CONFORMATIONAL TRANSITIONS WITH LOW MOLECULAR WEIGHT COMPOUNDS” (priority 2006, published 2011) are described below.

Ends that are not written are not given here.

The target in test [1] is T1, PDK1 phosphorylation of GST-S6K1-T2[Thr412Glu] (Homo sapiens, UniProt O15530).
T1 construct: GST (N); made in house; host or cells: HEK293
In words: PDK1 phosphorylation of substrate S6K1 in vitro. Type of test: biochemical. Particulars: compound 100 and 200 μM. The method, then:
FIG. 4—Small compounds designed to bind the HM/PIF-pocket of PDK1 can block the PDK1-dependent phosphorylation and activation of substrates that require docking to the HM/PIF-pocket of PDK1. (A) Effect of compound 1 (100 and 200 μM) on PDK1 phosphorylation of its substrate S6K1. The phosphorylation reaction was performed in vitro with [γ^32P]ATP and then separated on SDS-PAGE followed by exposure to phosphorimager. The radioactive band corresponding to phosphorylated GST-56K1-T2[Thr412Glu] (S6K[412E]) is indicated. (B) PDK1 or PDK1[Val127Leu] (PDK1[V127L]) were pre-incubated with GST-[…]N-SGK1 [Ser422Asp] […] (C) The activity of S6K was measured in vitro after glutathione sepharose purification; aliquots of purified proteins were separated on SDS-PAGE and the level of activation loop phosphorylation was visualized by immunoblotting using phospho-specific antibodies that recognize the phosphorylated activation loop, followed by stripping of the membranes and re-probing with anti-GST to verify the presence of equal amounts of protein. (D) Cells overexpressing GST-56K1-T2[Thr412Glu] were treated as in (C) but S6K activity was measured in vitro after immunoprecipitation of the GST-fusion protein with anti-GST antibodies; the level of S6K expression was analysed by western-blotting of crude extracts. […]

In test [2] the target is T2, GST-PDK1 [Phe157Leu] (Homo sapiens, UniProt O15530, F157L).
T2 construct: different protein constructs, comprising the full length protein or the catalytic domain alone; made in house; host or cells: HEK293 cells (pEBG-2T-PDK1 mutant)
In words: PDK1 activity assay with T308tide. Type of test: biochemical.

T2 sequence (O15530 whole entry F157L, the tested form may be a part): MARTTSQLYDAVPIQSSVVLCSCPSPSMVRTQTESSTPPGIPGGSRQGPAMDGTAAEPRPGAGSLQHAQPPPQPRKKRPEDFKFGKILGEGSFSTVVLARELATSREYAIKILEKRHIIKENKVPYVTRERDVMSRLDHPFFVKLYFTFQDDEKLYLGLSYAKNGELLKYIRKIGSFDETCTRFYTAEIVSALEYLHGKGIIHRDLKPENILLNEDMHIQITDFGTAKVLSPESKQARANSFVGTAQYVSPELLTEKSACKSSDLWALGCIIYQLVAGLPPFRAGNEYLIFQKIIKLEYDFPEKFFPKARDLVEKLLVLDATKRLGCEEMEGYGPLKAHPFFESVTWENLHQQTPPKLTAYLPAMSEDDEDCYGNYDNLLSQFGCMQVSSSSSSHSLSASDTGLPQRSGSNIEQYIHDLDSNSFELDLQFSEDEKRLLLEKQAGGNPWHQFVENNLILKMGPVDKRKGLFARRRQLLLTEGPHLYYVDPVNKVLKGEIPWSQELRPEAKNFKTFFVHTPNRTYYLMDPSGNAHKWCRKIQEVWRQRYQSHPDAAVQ
T1 sequence (O15530 whole entry, change not shown): as the sequence (O15530 whole entry F157L, the tested form may be a part) above, with L157F counted along it

As to `O=C(O)CSC(CC(=O)c1ccc(Cl)cc1)c1ccccc1` (stereo not drawn) [Compound 1], in test [1], the “PDK1-catalyzed phosphorylation of S6K1 (in words)” value is given as “decreased”.

As usually defined, the AC50 is the concentration giving half of the maximal activity seen. A higher AC50 goes with activity only at high concentration. Take “REPRILSEEEQEMFRDFDYIADWC [PIFtide, reference compound]”: in test [2], the activity was half-maximal at 320 ± 190 nM (AC50) and the Max. activity is listed as 1.4 ± 0.14 U/mg.
